# Measured values: US20130130903A1, “Suppression of Foliar and Soilborne Pathogens” (priority 2003, published 2013)
# Key:
# [1] = system: Gaeumannomyces graminis var. tritici (Ggt); assay: Field yield of Ggt inoculated spring wheat after herbicide treatment; format: in vivo; conditions: for Yield: Ggt inoculated, glyphosate on glyphosate res. wheat, Buctril/Harmony on sensitive wheat
# Text: This example describes the response of glyphosate resistant and glyphosate sensitive spring wheat to inoculation with soil pathogens as judged by wheat yield. Inoculation simulates the green-bridge effect of dying weeds and volunteer in a standing wheat crop. The soil pathogens assessed were: Rhizoctonia solani isolate AG-8 and Gaeumannomyces graminis var. tritici. These pathogenic strains are prevalent in the Pacific Northwest and were isolated from the region. They have been maintained by the Department of Plant Pathology and USDA researchers at Washington State University.
# Near isogenic lines (glyphosate resistant and glyphosate sensitive) of Westbred 926 and Bobwhite were seeded using a no-till drill at three different sites (Lind, Davenport and Pullman, Wash.).
# To introduce the root pathogens into the wheat seed for distribution into the field, oat seeds, autoclaved and sterilized, were inoculated for each soilborne pathogen using isolated pathogen cultures. Oat seeds that were non-inoculated, but sterilized and autoclaved, served as a control. Following two weeks of pathogen growth, the inoculated oat seeds were dried down for 2 days and screened for potential contamination. To establish a green-bridge, a mixture of 15% barley and 20% oat inoculum seeds (by weight) were planted using a small plot no-till drill. One week after planting the introduced green-bridge, the wheat isolines were planted in rows adjacent to the barley green-bridge rows in a randomized, split-plot design, replicated in five randomized blocks. Inoculum treatment served as the main plot, and response to herbicides as the subplot factor.
# This example describes the effect of herbicide treatment on spring wheat, averaged over all disease treatments, planted as described in Example 1. The appropriate herbicide was applied to each trial once the plants reached the 4-5 leaf stage with a custom built hand-pulled sprayer outfitted with a boom with a length of 16 feet with spray shields on the side to minimize drift. In this manner, an entire plot was treated at once with the appropriate herbicide rate. Entries that were resistant to glyphosate were treated with ROUNDUP® brand herbicide (0.63 kg/ha), available from Monsanto, St. Louis, Mo. Herbicide sensitive and resistant entries were treated with a common broadleaf herbicide treatment (Buctril/Harmony) or a no-spray control. Introduced green-bridge barley and any other weeds were manually removed 7-10 days after spray treatment to simulate the time required for ROUNDUP to take effect and maintained weed-free conditions to provide an accurate comparison to commercial weed management strategies needed to assess potential herbicide/disease interactions. […]
# [2] = system: stripe rust; assay: Glyphosate amount and timing on glyphosate resistant Macon wheat: stripe rust and yield; format: in vivo, Puccinia striiformis
# Text: This example describes the effect of glyphosate treatment of glyphosate resistant wheat in varying amounts and at different times. Eight different treatment regimens were applied to the hard white spring wheat variety Macon, which is susceptible to stripe rust. Macon plots were planted at the Palouse Conservation Farm near Pullman, Washington and subjected to one of the following eight treatment regimens:
# Treatment 1: no herbicide treatment and manual weed control;
# Treatment 2: a 16 oz./A (0.50 kg/ha of active ingredient) application of glyphosate, one-half the recommended rate of 32 oz./A (1.0 kg/ha of active ingredient), was made ‘on-label’ to glyphosate resistant wheat at the 4-5 leaf stage.
# Treatment 3: a first application of glyphosate at one-half (0.50 kg/ha of active ingredient) the recommended density of 1.0 kg/ha was made to glyphosate resistant wheat at the 4-5 leaf stage according to the manufacturer's instructions. A second application of 16 oz./A (0.50 kg/ha of active ingredient) glyphosate was made once moderate stripe rust symptoms appeared (42 days following the first glyphosate application).
# Treatment 4: a 16 oz./A (0.50 kg/ha of active ingredient) application of glyphosate, one-half the recommended rate, was made to glyphosate resistant wheat once moderate stripe rust symptoms appeared.
# Treatment 5: a 32 oz./A (1.0 kg/ha of active ingredient) application of glyphosate, the recommended full rate, was made ‘on-label’ to glyphosate resistant wheat at the 4-5 leaf stage.
# Treatment 6: a first application of 32 oz./A. (1.0 kg/ha of active ingredient) glyphosate, the recommended full rate, was made ‘on-label’ to glyphosate resistant wheat at the 4-5 leaf stage and a second application of 32 oz./A. (1.0 kg/ha) glyphosate was made once moderate stripe rust symptoms appeared.
# Treatment 7: a 32 oz./A. (1.0 kg/ha of active ingredient) application of glyphosate was made to glyphosate resistant wheat once moderate stripe rust symptoms appeared. Treatment 8: a 48 oz./A. ([…] of active ingredient) application of glyphosate, 1.5 times the recommended rate, was made to glyphosate resistant plants at the 4-5 leaf stage.
# With reference to Table 7, stripe rust severity is characterized with two numerical indications. The first is a number characterizing the stripe rust severity on a scale of 0-9, with 0 corresponding to no infection and 9 being a high level of spore activity and infection. The second number is a percentage of the plants in the plot infected with the rating described by the first number.
# [3] = 16 oz (52 days) and 16 oz (94 days)
# [4] = 32 oz (52 days) and 32 oz (94 days)
# [5] = off-label applications made 94 days after planting
smiles,measurement,setting,value
"O=C(O)CNCP(=O)(O)O [glyphosate, N-phosphonomethylglycine]",Yield,[1]; Davenport,28.7 bu/acre
same,Yield,[1]; Lind,14.4 bu/acre
same,Yield,[1]; Pullman,57.0 bu/acre
same,yield versus untreated and Buctril/Harmony treated glyphosate sensitive wheat,"[1]; glyphosate resistant, Ggt inoculated wheat, each location",significantly superior (P<0.05)
same,"Stripe Rust (96 days after planting), percentage of the plants in the plot infected with the rating",[2]; 16 oz (52 days),10%
same,"Stripe Rust (102 days after planting), percentage of the plants in the plot infected with the rating",[2]; 16 oz (52 days),30%
same,"Stripe Rust (102 days after planting), severity on a scale of 0-9",[2]; 16 oz (52 days),7-8
same,"Stripe Rust (106 days after planting), percentage of the plants in the plot infected with the rating",[2]; 16 oz (52 days),30%
same,"Stripe Rust (106 days after planting), severity on a scale of 0-9",[2]; 16 oz (52 days),8
same,Yield,[2]; 16 oz (52 days),60.2 bu/A
same,"Stripe Rust (96 days after planting), percentage of the plants in the plot infected with the rating",[2]; [3],10%
same,"Stripe Rust (96 days after planting), severity on a scale of 0-9",[2]; [3],4-5
same,"Stripe Rust (102 days after planting), percentage of the plants in the plot infected with the rating",[2]; [3],10%
same,"Stripe Rust (102 days after planting), severity on a scale of 0-9",[2]; [3],0-1
same,"Stripe Rust (106 days after planting), percentage of the plants in the plot infected with the rating",[2]; [3],10%
same,"Stripe Rust (106 days after planting), severity on a scale of 0-9",[2]; [3],2
same,Yield,[2]; [3],68.7 bu/A
same,"Stripe Rust (96 days after planting), severity on a scale of 0-9","[2]; 16 oz (52 days), 0 = no infection, 9 = high level of spore activity and infection",7-8
same,"Stripe Rust (96 days after planting), percentage of the plants in the plot infected with the rating",[2]; 16 oz (94 days),20%
same,"Stripe Rust (102 days after planting), percentage of the plants in the plot infected with the rating",[2]; 16 oz (94 days),20%
same,"Stripe Rust (102 days after planting), severity on a scale of 0-9",[2]; 16 oz (94 days),2-3
same,"Stripe Rust (106 days after planting), percentage of the plants in the plot infected with the rating",[2]; 16 oz (94 days),15%
same,"Stripe Rust (106 days after planting), severity on a scale of 0-9",[2]; 16 oz (94 days),2-3
same,Yield,[2]; 16 oz (94 days),52.7 bu/A
same,"Stripe Rust (96 days after planting), severity on a scale of 0-9","[2]; 16 oz (94 days), once moderate stripe rust symptoms appeared",7-8
same,"Stripe Rust (96 days after planting), percentage of the plants in the plot infected with the rating",[2]; 32 oz (52 days),20%
same,"Stripe Rust (96 days after planting), severity on a scale of 0-9",[2]; 32 oz (52 days),7-8
same,"Stripe Rust (102 days after planting), percentage of the plants in the plot infected with the rating",[2]; 32 oz (52 days),40%
same,"Stripe Rust (102 days after planting), severity on a scale of 0-9",[2]; 32 oz (52 days),7-8
same,"Stripe Rust (106 days after planting), percentage of the plants in the plot infected with the rating",[2]; 32 oz (52 days),60%
same,"Stripe Rust (106 days after planting), severity on a scale of 0-9",[2]; 32 oz (52 days),8
same,Yield,[2]; 32 oz (52 days),80.3 bu/A
same,"Stripe Rust (96 days after planting), percentage of the plants in the plot infected with the rating",[2]; [4],5%
same,"Stripe Rust (96 days after planting), severity on a scale of 0-9",[2]; [4],9
same,"Stripe Rust (102 days after planting), percentage of the plants in the plot infected with the rating",[2]; [4],5%
same,"Stripe Rust (102 days after planting), severity on a scale of 0-9",[2]; [4],1-2
same,"Stripe Rust (106 days after planting), percentage of the plants in the plot infected with the rating",[2]; [4],10%
same,"Stripe Rust (106 days after planting), severity on a scale of 0-9",[2]; [4],3
same,Yield,[2]; [4],74.5 bu/A
same,"Stripe Rust (96 days after planting), percentage of the plants in the plot infected with the rating",[2]; 32 oz (94 days),25%
same,"Stripe Rust (102 days after planting), percentage of the plants in the plot infected with the rating",[2]; 32 oz (94 days),20%
same,"Stripe Rust (102 days after planting), severity on a scale of 0-9",[2]; 32 oz (94 days),0-1
same,"Stripe Rust (106 days after planting), percentage of the plants in the plot infected with the rating",[2]; 32 oz (94 days),5%
same,"Stripe Rust (106 days after planting), severity on a scale of 0-9",[2]; 32 oz (94 days),2
same,Yield,[2]; 32 oz (94 days),64.5 bu/A
same,"Stripe Rust (96 days after planting), severity on a scale of 0-9","[2]; 32 oz (94 days), once moderate stripe rust symptoms appeared",7-8
same,"Stripe Rust (96 days after planting), percentage of the plants in the plot infected with the rating",[2]; 48 oz (52 days),2%
same,"Stripe Rust (96 days after planting), severity on a scale of 0-9",[2]; 48 oz (52 days),7-8
same,"Stripe Rust (102 days after planting), percentage of the plants in the plot infected with the rating",[2]; 48 oz (52 days),10%
same,"Stripe Rust (102 days after planting), severity on a scale of 0-9",[2]; 48 oz (52 days),4-5
same,"Stripe Rust (106 days after planting), percentage of the plants in the plot infected with the rating",[2]; 48 oz (52 days),20%
same,"Stripe Rust (106 days after planting), severity on a scale of 0-9",[2]; 48 oz (52 days),8
same,Yield,[2]; 48 oz (52 days),67.8 bu/A
same,control of stripe rust compared to the 16 oz./A and 32 oz./A application,[2]; 48 oz./A rate applied at the 4-5 leaf stage,did the best job of controlling stripe rust
same,effect on plants moderately infected with stripe rust,[2]; [5],a curative effect was observed
same,"formation of necrotic stripes on the leaves, time following glyphosate application",[2]; [5],second day
same,control of stripe rust in the trial,"[2]; treatments 3 and 6, split-treatments (52 and 94 days after planting)",best control of stripe rust
